Source: patent US10913727B2, “Modulators of the integrated stress pathway” (Calico Life Sciences LLC, priority 2016, dated 2021)

Test system: HEK293T cells carrying the ATF4 luciferase reporter
Experiment: ATF4-Luc assay, in vitro model of Vanishing Cell White Matter Disease (VWMD)
Format: cell-based
Conditions: Homo sapiens, HEK-293T, 1 μg/mL tunicamycin, 7 hours, One Glo luminescence
Summary of the method: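 Stable HEK293T line with human ATF4 5′-UTR–firefly luciferase reporter treated with 1 μg/mL tunicamycin plus 200 nM compound for 7 h. Luminescence read; EC50 derived.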

Row | SMILES | EC50 [nM]
1 | O=C(COc1ccc(Cl)c(F)c1)NC12CC(NC(=O)c3cnc4ccnn4c3)(C1)C2 [Compound 690, N-{3-[2-(4-chloro-3-fluorophenoxy)acetamido]bicyclo[1.1.1]pentan-1-yl}pyrazolo[1,5-a]pyrimidine-6-carboxamide] | 250 to 1000
2 | O=C(COc1ccc(Cl)c(F)c1)NC12CC(NC(=O)c3ccc(Cl)c(F)c3)(C1)C2 [Compound 692, 4-chloro-N-{3-[2-(4-chloro-3-fluorophenoxy)acetamido]bicyclo[1.1.1]pentan-1-yl}-3-fluorobenzamide] | 50 to 250
3 | Cc1cc(C(=O)NC23CC(NC(=O)COc4ccc(Cl)c(Cl)c4)(C2)C3)cnc1C [Compound 693, N-{3-[2-(3,4-dichlorophenoxy)acetamido]bicyclo[1.1.1]pentan-1-yl}-5,6-dimethylpyridine-3-carboxamide] | 250 to 1000
4 | CCc1cc(C(=O)NC23CCC(NC(=O)COc4ccc(Cl)c(Cl)c4)(CC2)[C@@H](O)C3)on1 [Compound 694, N-{(3S)-4-[2-(3,4-dichlorophenoxy)acetamido]-3-hydroxybicyclo[2.2.2]octan-1-yl}-3-ethyl-1,2-oxazole-5-carboxamide] | < 50
5 | O=C(COc1ccc(Cl)c(F)c1)NC12CCC(NC(=O)c3ccsn3)(CC1)C[C@@H]2O [Compound 695, N-{(3S)-4-[2-(4-chloro-3-fluorophenoxy)acetamido]-3-hydroxybicyclo[2.2.2]octan-1-yl}-1,2-thiazole-3-carboxamide] | < 50
6 | CCc1ccnc(C(=O)NC23CC(NC(=O)COc4ccc(Cl)c(Cl)c4)(C2)C3)c1 [Compound 696, N-{3-[2-(3,4-dichlorophenoxy)acetamido]bicyclo[1.1.1]pentan-1-yl}-4-ethylpyridine-2-carboxamide] | 50 to 250
7 | O=C(COc1ccc(Cl)c(Cl)c1)NC12CC(NC(=O)c3nc(C4CC4)cs3)(C1)C2 [Compound 697, 4-cyclopropyl-N-{3-[2-(3,4-dichlorophenoxy)acetamido]bicyclo[1.1.1]pentan-1-yl}-1,3-thiazole-2-carboxamide] | < 50
8 | CCc1nc(C(=O)NC23CC(NC(=O)COc4ccc(Cl)c(Cl)c4)(C2)C3)cs1 [Compound 698, N-{3-[2-(3,4-dichlorophenoxy)acetamido]bicyclo[1.1.1]pentan-1-yl}-2-ethyl-1,3-thiazole-4-carboxamide] | < 50
9 | CCc1nc(C(=O)NC23CC(NC(=O)COc4ccc5c(c4)OC(F)(F)O5)(C2)C3)cs1 [Compound 699, N-(3-{2-[(2,2-difluoro-2H-1,3-benzodioxol-5-yl)oxy]acetamido}bicyclo[1.1.1]pentan-1-yl)-2-ethyl-1,3-thiazole-4-carboxamide] | 250 to 1000
10 | CCc1ccc(C(=O)NC23CC(NC(=O)COc4ccc(Cl)c(Cl)c4)(C2)C3)nc1 [Compound 700, N-{3-[2-(3,4-dichlorophenoxy)acetamido]bicyclo[1.1.1]pentan-1-yl}-5-ethylpyridine-2-carboxamide] | < 50
11 | Cc1nc(C(=O)NC23CCC(NC(=O)COc4ccc(Cl)c(Cl)c4)(CC2)[C@@H](O)C3)cs1 [Compound 701, N-{(3S)-4-[2-(3,4-dichlorophenoxy)acetamido]-3-hydroxybicyclo[2.2.2]octan-1-yl}-2-methyl-1,3-thiazole-4-carboxamide] | 50 to 250
12 | Cc1nc(C(=O)NC23CCC(NC(=O)COc4ccc(Cl)c(Cl)c4)(CC2)[C@@H](O)C3)n[nH]1 [Compound 702, N-{(3S)-4-[2-(3,4-dichlorophenoxy)acetamido]-3-hydroxybicyclo[2.2.2]octan-1-yl}-5-methyl-1H-1,2,4-triazole-3-carboxamide] | < 50
13 | O=C(COc1ccc(Cl)c(Cl)c1)NC12CCC(NC(=O)c3cnc(C(F)F)cn3)(CC1)C[C@@H]2O [Compound 703, N-{(3S)-4-[2-(3,4-dichlorophenoxy)acetamido]-3-hydroxybicyclo[2.2.2]octan-1-yl}-5-(difluoromethyl)pyrazine-2-carboxamide] | < 50
14 | O=C(COc1ccc(Cl)c(F)c1)NC12CCC(NC(=O)c3cc(C(F)(F)F)no3)(CC1)C[C@@H]2O [Compound 704, N-{(3S)-4-[2-(4-chloro-3-fluorophenoxy)acetamido]-3-hydroxybicyclo[2.2.2]octan-1-yl}-3-(trifluoromethyl)-1,2-oxazole-5-carboxamide] | < 50
15 | CC(C)(C)c1cnc(C(=O)NC23CCC(NC(=O)COc4ccc(Cl)c(F)c4)(CC2)[C@@H](O)C3)cn1 [Compound 705, 5-tert-butyl-N-{(3S)-4-[2-(4-chloro-3-fluorophenoxy)acetamido]-3-hydroxybicyclo[2.2.2]octan-1-yl}pyrazine-2-carboxamide] | > 2000
16 | Cc1cc(C(=O)N(C)C23CCC(NC(=O)COc4ccc(Cl)c(F)c4)(CC2)[C@@H](O)C3)on1 [Compound 706, N-{(3S)-4-[2-(4-chloro-3-fluorophenoxy)acetamido]-3-hydroxybicyclo[2.2.2]octan-1-yl}-N,3-dimethyl-1,2-oxazole-5-carboxamide] | < 50
17 | COc1cc(C(=O)NC23CCC(NC(=O)COc4ccc(Cl)c(F)c4)(C2)C3)on1 [Compound 707, N-{4-[2-(4-chloro-3-fluorophenoxy)acetamido]bicyclo[2.1.1]hexan-1-yl}-3-methoxy-1,2-oxazole-5-carboxamide] | 250 to 1000

Row | SMILES | EC50 [nM]
18 | CCc1cnc(C(=O)NC23CC(NC(=O)COc4ccc(Cl)c(F)c4)(C2)C3)cn1 [Compound 708, N-{3-[2-(4-chloro-3-fluorophenoxy)acetamido]bicyclo[1.1.1]pentan-1-yl}-5-ethylpyrazine-2-carboxamide] | 50 to 250
19 | COc1cc(C(=O)NC23CC(NC(=O)COc4ccc(Cl)c(Cl)c4)(C2)C3)on1 [Compound 709, N-{3-[2-(3,4-dichlorophenoxy)acetamido]bicyclo[1.1.1]pentan-1-yl}-3-methoxy-1,2-oxazole-5-carboxamide] | 50 to 250
20 | Cc1cc(C(=O)NC23CCC(NC(=O)COc4ccc(Cl)c(F)c4)(C2)C3)sn1 [Compound 710, N-{4-[2-(4-chloro-3-fluorophenoxy)acetamido]bicyclo[2.1.1]hexan-1-yl}-3-methyl-1,2-thiazole-5-carboxamide] | 250 to 1000
21 | CCc1cnc(C(=O)NC23CC(NC(=O)COc4ccc(Cl)c(Cl)c4)(C2)C3)cn1 [Compound 711, N-{3-[2-(3,4-dichlorophenoxy)acetamido]bicyclo[1.1.1]pentan-1-yl}-5-ethylpyrazine-2-carboxamide] | < 50
22 | CCc1cnc(C(=O)NC23CCC(NC(=O)COc4ccc(Cl)c(F)c4)(C2)C3)cn1 [Compound 712, N-{4-[2-(4-chloro-3-fluorophenoxy)acetamido]bicyclo[2.1.1]hexan-1-yl}-5-ethylpyrazine-2-carboxamide] | 250 to 1000
23 | Cn1ccc(C(=O)NC23CC(NC(=O)COc4ccc(Cl)c(Cl)c4)(C2)C3)n1 [Compound 713, N-{3-[2-(3,4-dichlorophenoxy)acetamido]bicyclo[1.1.1]pentan-1-yl}-1-methyl-1H-pyrazole-3-carboxamide] | 50 to 250
24 | O=C(COc1ccc(Cl)c(F)c1)NC12CC(Nc3cncc(C4CC4)n3)(C1)C2 [Compound 714, 2-(4-chloro-3-fluorophenoxy)-N-{3-[(6-cyclopropylpyrazin-2-yl)amino]bicyclo[1.1.1]pentan-1-yl}acetamide] | 250 to 1000
25 | O=C(COc1ccc(Cl)c(Cl)c1)NC12CC(NC(=O)c3ccnc(CO)c3)(C1)C2 [Compound 715, N-{3-[2-(3,4-dichlorophenoxy)acetamido]bicyclo[1.1.1]pentan-1-yl}-2-(hydroxymethyl)pyridine-4-carboxamide] | 1000 to 2000
26 | O=C(COc1ccc(Cl)c(Cl)c1)NC12CC(NC(=O)c3cc(OC(F)F)ccn3)(C1)C2 [Compound 716, N-{3-[2-(3,4-dichlorophenoxy)acetamido]bicyclo[1.1.1]pentan-1-yl}-4-(difluoromethoxy)pyridine-2-carboxamide] | 250 to 1000
27 | O=C(COc1ccc2c(c1)OC(F)(F)O2)NC12CC(NC(=O)c3cnc(C4CC4)o3)(C1)C2 [Compound 717, 2-cyclopropyl-N-(3-{2-[(2,2-difluoro-2H-1,3-benzodioxol-5-yl)oxy]acetamido}bicyclo[1.1.1]pentan-1-yl)-1,3-oxazole-5-carboxamide] | 250 to 1000
28 | O=C(COc1ccc(Cl)c(F)c1)NC12CC(NC(=O)c3ccc(CO)nc3)(C1)C2 [Compound 718, N-{3-[2-(4-chloro-3-fluorophenoxy)acetamido]bicyclo[1.1.1]pentan-1-yl}-6-(hydroxymethyl)pyridine-3-carboxamide] | 250 to 1000
29 | O=C(COc1ccc(Cl)c(Cl)c1)NC12CC(NC(=O)c3ccc(CO)nc3)(C1)C2 [Compound 719, N-{3-[2-(3,4-dichlorophenoxy)acetamido]bicyclo[1.1.1]pentan-1-yl}-6-(hydroxymethyl)pyridine-3-carboxamide] | 1000 to 2000
30 | N#Cc1cnc(NC23CC(NC(=O)COc4ccc(Cl)c(F)c4)(C2)C3)cn1 [Compound 720, 2-(4-chloro-3-fluorophenoxy)-N-{3-[(5-cyanopyrazin-2-yl)amino]bicyclo[1.1.1]pentan-1-yl}acetamide] | > 2000
31 | O=C(COc1ccc(Cl)c(F)c1)NC12CC(Nc3ccnc(N4CCOCC4)n3)(C1)C2 [Compound 721, 2-(4-chloro-3-fluorophenoxy)-N-(3-{[2-(morpholin-4-yl)pyrimidin-4-yl]amino}bicyclo[1.1.1]pentan-1-yl)acetamide] | > 2000
32 | O=C(COc1ccc(Cl)c(F)c1)NC12CC(Nc3nccn4nccc34)(C1)C2 [Compound 722, 2-(4-chloro-3-fluorophenoxy)-N-{3-[(pyrazolo[1,5-a]pyrazin-4-yl)amino]bicyclo[1.1.1]pentan-1-yl}acetamide] | 50 to 250
33 | O=C(COc1ccc(Cl)c(F)c1)NC12CC(NC(=O)c3cnc4sccc4c3)(C1)C2 [Compound 723, N-{3-[2-(4-chloro-3-fluorophenoxy)acetamido]bicyclo[1.1.1]pentan-1-yl}thieno[2,3-b]pyridine-5-carboxamide] | 250 to 1000
